Test results from patent US6479435B1, “Diaryl ethers and processes for their preparation and herbicidal and desiccant compositions containing them” (ISK Americas Incorporated, priority 1997, dated 2002).

What was measured:
Assay type in all cases: in vivo
[1] = test system: upland rice (Oryza sp., var.Tebonnet, RICE); experiment: Post-emerge greenhouse test, crop damage rating; conditions: 14 days after application
Method in brief: (§1)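 Scores use a 0 (no damage) to 100 (complete kill) scale, taken 14 days after a foliar spray. Acetone solutions with 0.25% v/v non-ionic surfactant were applied by track sprayer at 187 l/ha and 63-1000 g ai/ha to bottom-watered 2-3 leaf plants.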

[2] = test system: field corn (Zea mays L., var. Dekalb 535, CORN); experiment: Post-emerge greenhouse test, crop damage rating; conditions: 14 days after application
Method in brief: as §1

[3] = test system: soybean (Glycine max L., var. Pella 86, SOY); experiment: Post-emerge greenhouse test, crop damage rating; conditions: 14 days after application
Method in brief: as §1

[4] = test system: upland rice (Oryza sp., var.Tebonnet, RICE); experiment: Pre-emerge greenhouse test, crop damage rating; conditions: 14 days after application, rating scale 0-100
Method in brief: (§2)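 Visual 0–100 injury rating (100 = all plants dead) taken 14 days after treatment. Rates of 125–1000 g ai/ha in acetone, 187 l/ha, were sprayed onto soil one day post-sowing; pots were surface-watered to incorporate, then bottom-watered.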

[5] = test system: field corn (Zea mays L., var. Dekalb 535, CORN); experiment: Pre-emerge greenhouse test, crop damage rating; conditions: 14 days after application, rating scale 0-100
Method in brief: as §2

[6] = test system: sicklepod (Cassia obtusifolia, CASOB); experiment: Post-emerge greenhouse herbicide test, phytotoxicity rating; conditions: 14 days after application
Method in brief: as §1

[7] = test system: green foxtail (Setaria viridis, SETVI); experiment: as above; conditions: 14 days after application
Method in brief: as §1

[8] = test system: lambsquarters (Chenopodium album, CHEAL); experiment: as above; conditions: 14 days after application
Method in brief: as §1

[9] = test system: large crabgrass (Digitaria sanguinalis, DIGSA); experiment: as above; conditions: 14 days after application
Method in brief: as §1

[10] = test system: velvetleaf (Abutilon theophrasti, ABUTH); experiment: as above; conditions: 14 days after application
Method in brief: as §1

[11] = test system: ivyleaf morningglory (Ipomoea hederacea, IPOHE); experiment: as above; conditions: 14 days after application
Method in brief: as §1

[12] = test system: barnyardgrass (Echinochloa crusgalli, ECHCG); experiment: as above; conditions: 14 days after application
Method in brief: as §1

[13] = test system: redroot pigweed (Amaranthus retroflexus, AMARE); experiment: as above; conditions: 14 days after application
Method in brief: as §1

[14] = test system: Johnsongrass (Sorghum halepense, SORHA); experiment: as above; conditions: 14 days after application
Method in brief: as §1

[15] = test system: soybean (Glycine max L., var. Pella 86, SOY); experiment: Pre-emerge greenhouse test, crop damage rating; conditions: 14 days after application, rating scale 0-100
Method in brief: as §2

[16] = test system: common ragweed (Ambrosia artemisiifolia L., AMBEL); experiment: Post-emerge greenhouse herbicide test, phytotoxicity rating; conditions: 14 days after application
Method in brief: as §1

[17] = test system: common ragweed (Ambrosia artemisiifolia L., AMBEL); experiment: Pre-emerge greenhouse herbicide test, phytotoxicity rating; conditions: 14 days after application, rating scale 0-100
Method in brief: as §2

[18] = test system: sicklepod (Cassia obtusifolia, CASOB); experiment: as above; conditions: 14 days after application, rating scale 0-100
Method in brief: as §2

[19] = test system: green foxtail (Setaria viridis, SETVI); experiment: as above; conditions: 14 days after application, rating scale 0-100
Method in brief: as §2

[20] = test system: lambsquarters (Chenopodium album, CHEAL); experiment: as above; conditions: 14 days after application, rating scale 0-100
Method in brief: as §2

[21] = test system: large crabgrass (Digitaria sanguinalis, DIGSA); experiment: as above; conditions: 14 days after application, rating scale 0-100
Method in brief: as §2

[22] = test system: velvetleaf (Abutilon theophrasti, ABUTH); experiment: as above; conditions: 14 days after application, rating scale 0-100
Method in brief: as §2

[23] = test system: ivyleaf morningglory (Ipomoea hederacea, IPOHE); experiment: as above; conditions: 14 days after application, rating scale 0-100
Method in brief: as §2

[24] = test system: barnyardgrass (Echinochloa crusgalli, ECHCG); experiment: as above; conditions: 14 days after application, rating scale 0-100
Method in brief: as §2

[25] = test system: redroot pigweed (Amaranthus retroflexus, AMARE); experiment: as above; conditions: 14 days after application, rating scale 0-100
Method in brief: as §2

[26] = test system: Johnsongrass (Sorghum halepense, SORHA); experiment: as above; conditions: 14 days after application, rating scale 0-100
Method in brief: as §2

CN1CC(=O)N(c2cc(Oc3ncccn3)c(Cl)cc2F)C1=O [Compound 8-3]
RICE crop damage rating (0-100) ([1]; 63 g al/ha): 0
RICE crop damage rating (0-100) ([1]; 500 g al/ha): 0
CORN crop damage rating (0-100) ([2]; 63 g al/ha): 0
CORN crop damage rating (0-100) ([2]; 500 g al/ha): 0
SOY crop damage rating (0-100) ([3]; 63 g al/ha): 10
SOY crop damage rating (0-100) ([3]; 500 g al/ha): 50
crop damage rating RICE ([4]; 125 g ai/ha): 0
crop damage rating RICE ([4]; 500 g ai/ha): 30
crop damage rating CORN ([5]; 125 g ai/ha): 0
crop damage rating CORN ([5]; 500 g ai/ha): 5
CASOB phytotoxicity rating (0-100) ([6]; 63 g al/ha): 0
CASOB phytotoxicity rating (0-100) ([6]; 500 g al/ha): 0
SETVI phytotoxicity rating (0-100) ([7]; 63 g al/ha): 0
SETVI phytotoxicity rating (0-100) ([7]; 500 g al/ha): 0
CHEAL phytotoxicity rating (0-100) ([8]; 63 g al/ha): 50
CHEAL phytotoxicity rating (0-100) ([8]; 500 g al/ha): 85
DIGSA phytotoxicity rating (0-100) ([9]; 63 g al/ha): 0
DIGSA phytotoxicity rating (0-100) ([9]; 500 g al/ha): 0
ABUTH phytotoxicity rating (0-100) ([10]; 63 g al/ha): 10
ABUTH phytotoxicity rating (0-100) ([10]; 500 g al/ha): 75
IPOHE phytotoxicity rating (0-100) ([11]; 63 g al/ha): 60
IPOHE phytotoxicity rating (0-100) ([11]; 500 g al/ha): 90
ECHCG phytotoxicity rating (0-100) ([12]; 63 g al/ha): 0
ECHCG phytotoxicity rating (0-100) ([12]; 500 g al/ha): 0
AMARE phytotoxicity rating (0-100) ([13]; 63 g al/ha): 20
AMARE phytotoxicity rating (0-100) ([13]; 500 g al/ha): 75
SORHA phytotoxicity rating (0-100) ([14]; 63 g al/ha): 0
SORHA phytotoxicity rating (0-100) ([14]; 500 g al/ha): 0
crop damage rating SOY ([15]; 125 g ai/ha): 0
crop damage rating SOY ([15]; 500 g ai/ha): 10
AMBEL phytotoxicity rating (0-100) ([16]; 63 g al/ha): 20
AMBEL phytotoxicity rating (0-100) ([16]; 500 g al/ha): 60
phytotoxicity rating AMBEL ([17]; 125 g ai/ha): 20
phytotoxicity rating AMBEL ([17]; 500 g ai/ha): 60
phytotoxicity rating CASOB ([18]; 125 g ai/ha): 0
phytotoxicity rating CASOB ([18]; 500 g ai/ha): 0
phytotoxicity rating SETVI ([19]; 125 g ai/ha): 0
phytotoxicity rating SETVI ([19]; 500 g ai/ha): 70
phytotoxicity rating CHEAL ([20]; 125 g ai/ha): 80
phytotoxicity rating CHEAL ([20]; 500 g ai/ha): 100
phytotoxicity rating DIGSA ([21]; 125 g ai/ha): 0
phytotoxicity rating DIGSA ([21]; 500 g ai/ha): 90
phytotoxicity rating ABUTH ([22]; 125 g ai/ha): 20
phytotoxicity rating ABUTH ([22]; 500 g ai/ha): 70
phytotoxicity rating IPOHE ([23]; 125 g ai/ha): 10
phytotoxicity rating IPOHE ([23]; 500 g ai/ha): 60
phytotoxicity rating ECHCG ([24]; 125 g ai/ha): 0
phytotoxicity rating ECHCG ([24]; 500 g ai/ha): 10
phytotoxicity rating AMARE ([25]; 125 g ai/ha): 10
phytotoxicity rating AMARE ([25]; 500 g ai/ha): 100
phytotoxicity rating SORHA ([26]; 125 g ai/ha): 0
phytotoxicity rating SORHA ([26]; 500 g ai/ha): 40

COc1cc(OC)nc(Oc2cc(-n3nnn(CCCF)c3=O)c(F)cc2Cl)n1 [Compound 6-15]
RICE crop damage rating (0-100) ([1]; 63 g al/ha): 0
RICE crop damage rating (0-100) ([1]; 500 g al/ha): 5
CORN crop damage rating (0-100) ([2]; 63 g al/ha): 0
CORN crop damage rating (0-100) ([2]; 500 g al/ha): 5
SOY crop damage rating (0-100) ([3]; 63 g al/ha): 0
SOY crop damage rating (0-100) ([3]; 500 g al/ha): 40
crop damage rating RICE ([4]; 125 g ai/ha): 0
crop damage rating RICE ([4]; 500 g ai/ha): 10
crop damage rating CORN ([5]; 125 g ai/ha): 0
crop damage rating CORN ([5]; 500 g ai/ha): 100
CASOB phytotoxicity rating (0-100) ([6]; 63 g al/ha): 20
CASOB phytotoxicity rating (0-100) ([6]; 500 g al/ha): 40
SETVI phytotoxicity rating (0-100) ([7]; 63 g al/ha): 0
SETVI phytotoxicity rating (0-100) ([7]; 500 g al/ha): 40
CHEAL phytotoxicity rating (0-100) ([8]; 63 g al/ha): 50
CHEAL phytotoxicity rating (0-100) ([8]; 500 g al/ha): 90
DIGSA phytotoxicity rating (0-100) ([9]; 63 g al/ha): 0
DIGSA phytotoxicity rating (0-100) ([9]; 500 g al/ha): 0
ABUTH phytotoxicity rating (0-100) ([10]; 63 g al/ha): 60
ABUTH phytotoxicity rating (0-100) ([10]; 500 g al/ha): 99
IPOHE phytotoxicity rating (0-100) ([11]; 63 g al/ha): 20
IPOHE phytotoxicity rating (0-100) ([11]; 500 g al/ha): 70
ECHCG phytotoxicity rating (0-100) ([12]; 63 g al/ha): 0
ECHCG phytotoxicity rating (0-100) ([12]; 500 g al/ha): 0
AMARE phytotoxicity rating (0-100) ([13]; 63 g al/ha): 20
AMARE phytotoxicity rating (0-100) ([13]; 500 g al/ha): 95
SORHA phytotoxicity rating (0-100) ([14]; 63 g al/ha): 0
SORHA phytotoxicity rating (0-100) ([14]; 500 g al/ha): 10
crop damage rating SOY ([15]; 125 g ai/ha): 0
crop damage rating SOY ([15]; 500 g ai/ha): 0
AMBEL phytotoxicity rating (0-100) ([16]; 63 g al/ha): 0
AMBEL phytotoxicity rating (0-100) ([16]; 500 g al/ha): 20
phytotoxicity rating AMBEL ([17]; 125 g ai/ha): 0
phytotoxicity rating AMBEL ([17]; 500 g ai/ha): 0
phytotoxicity rating CASOB ([18]; 125 g ai/ha): 0
phytotoxicity rating CASOB ([18]; 500 g ai/ha): 30
phytotoxicity rating SETVI ([19]; 125 g ai/ha): 10
phytotoxicity rating SETVI ([19]; 500 g ai/ha): 90
phytotoxicity rating CHEAL ([20]; 125 g ai/ha): 20
phytotoxicity rating CHEAL ([20]; 500 g ai/ha): 100
phytotoxicity rating DIGSA ([21]; 125 g ai/ha): 10
phytotoxicity rating DIGSA ([21]; 500 g ai/ha): 60
phytotoxicity rating ABUTH ([22]; 125 g ai/ha): 20
phytotoxicity rating ABUTH ([22]; 500 g ai/ha): 100
phytotoxicity rating IPOHE ([23]; 125 g ai/ha): 0
phytotoxicity rating IPOHE ([23]; 500 g ai/ha): 10
phytotoxicity rating ECHCG ([24]; 125 g ai/ha): 0
phytotoxicity rating ECHCG ([24]; 500 g ai/ha): 0
phytotoxicity rating AMARE ([25]; 125 g ai/ha): 30
phytotoxicity rating AMARE ([25]; 500 g ai/ha): 100
phytotoxicity rating SORHA ([26]; 125 g ai/ha): 0
phytotoxicity rating SORHA ([26]; 500 g ai/ha): 10
